Target: T1, KAT-II (kynurenine aminotransferase-II) (Homo sapiens, UniProt Q8N5Z0)
T1 construct: gene AADAT; recombinant KAT-II with a hexa-histidine tag, expressed in E. coli Rosetta 2
Assay: HPLC assay of kynurenic acid formation with purified recombinant enzyme
Type: biochemical

T1 sequence (Q8N5Z0 30-425): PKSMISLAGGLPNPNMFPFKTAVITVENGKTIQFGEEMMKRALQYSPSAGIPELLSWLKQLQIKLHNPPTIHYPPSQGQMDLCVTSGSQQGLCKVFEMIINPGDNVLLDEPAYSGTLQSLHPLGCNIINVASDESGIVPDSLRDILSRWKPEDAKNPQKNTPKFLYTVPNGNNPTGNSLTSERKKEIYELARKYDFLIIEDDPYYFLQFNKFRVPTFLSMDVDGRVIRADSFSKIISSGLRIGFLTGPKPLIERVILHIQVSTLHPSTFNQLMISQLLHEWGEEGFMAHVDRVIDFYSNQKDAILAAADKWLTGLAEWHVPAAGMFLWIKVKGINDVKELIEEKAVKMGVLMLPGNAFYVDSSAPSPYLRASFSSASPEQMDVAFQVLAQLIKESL

How did the IC50 turn out when NS(=O)(=O)c1ccc(N2C(=O)c3cc(Cl)c(Cl)cc3C2=O)cc1 [JN-01, 4-(5,6-dichloro-1,3-dioxo-1,3-dihydro-2H-isoindol-2-yl)benzenesulfonamide] was run?
The IC50 was 73.8 µM.

For NS(=O)(=O)c1ccc(CCN2C(=O)c3cc(Cl)c(Cl)cc3C2=O)cc1 [JN-02, 4-(5,6-dichloro-1,3-dioxo-1,3-dihydro-2H-isoindol-2-yl)ethyl benzenesulfonamide], which IC50 is on record?
The IC50 was 113 µM.

— paper PMC5915280, “Improvement of kynurenine aminotransferase-II inhibitors guided by mimicking sulfate esters” (PLoS ONE, 2018)
